“And” between values parts separate entries of the source, which are not always exact repeats. Equal entries are not always repeated. Where two headings read alike, the source gives them in different places.
Experiment: In vivo pharmacokinetic studies in rats
Set-up: species or system SD rats
Conditions: rats; for AUC(0-t): read-out: AUClast; for behaviour of exposure after 5 days of repeat dosing (in words): 10 mg/kg PO QD for 5 days
Method: This example describes pharmacokinetic (PK) studies of ARI-164, ARI-165, ARI-186, ARI-224, and ARI-226 in mice and rats. In the present studies, the test compounds were given to groups of mice and/or rats (N=3 in each group), intravenously (IV) at 2 mg/kg or orally (PO) at 10, 30, or 40 mg/kg. ARI-186, ARI-224 and ARI-226 were given orally to rats QD for 5 days at 10 mg/kg to assess whether decreased susceptibility to CYP1A1/1A2 metabolism would lead to increased accumulation. IV doses were formulated in DMSO, while PO doses were formulated in a 50/50 mixture of PEG400 and Tween 80 (single dose mouse and rat studies for ARI-164, ARI-165, ARI-186, ARI-224, ARI-226) or PEG400/Kolliphor HS15/Oleic Acid 45/45/10 (ARI-164 repeat dose rat study). Blood samples were collected at pre-dose and over a period of 24 hours post-dose. Plasma concentrations of the test compounds were determined by HPLC.

[1] = SD, rat, plasma, po, 10 mg/kg, repeat 10 mg/kg PO QD, Day 5, Mean
[2] = SD, rat, plasma, po, 10 mg/kg, repeat 10 mg/kg PO QD, Day 5, individual animal
[3] = Sprague-Dawley (SD), rat, plasma, po, 10 mg/kg, repeat 10 mg/kg PO QD, Day 1, Mean of 3 animals
[4] = Sprague-Dawley, rat, plasma, po, 10 mg/kg, repeat 10 mg/kg PO QD, Day 1, individual animal
[5] = Sprague-Dawley, rat, plasma, po, 10 mg/kg, repeat 10 mg/kg PO QD, Day 5, Mean
[6] = repeat 10 mg/kg PO QD, Day 1, individual animal
[7] = repeat 10 mg/kg PO QD, Day 5, individual animal
[8] = SD, rat, plasma, po, 10 mg/kg, PO 10 mg/kg repeat dose, Day 1, Mean of 3 animals
[9] = Sprague-Dawley (SD), rat, plasma, po, 10 mg/kg, PO 10 mg/kg repeat dose, Day 1, individual animals (ID 4, 5, 6)
[10] = Sprague-Dawley (SD), rat, plasma, po, 10 mg/kg, PO 10 mg/kg repeat dose, Day 5, Mean of 3 animals
[11] = PO 10 mg/kg repeat dose, Day 1, individual animals (ID 4, 5, 6), 10 mg/kg
[12] = PO 10 mg/kg repeat dose, Day 5, individual animals (ID 4, 5, 6), 10 mg/kg

N[C@@H](c1csc(C(=O)c2c[nH]c3cc(F)ccc23)n1)C(F)(F)F [ARI-224]
AUC(0-inf) [1]: 8.24 ng·h/mL
MRT inf at 5 days [1]: 1.95 h
half-life at 5 days [1]: 76.8 min
AUC(0-inf) [2]: 8.24 ng·h/mL
MRT inf at 5 days [2]: 1.95 h
half-life at 5 days [2]: 76.8 min
AUC(0-inf) [3]: 2680 ng·h/mL
Cmax at 1 day [3]: 792 ng/mL
MRT inf at 1 day [3]: 2.79 h
MRT last at 1 day [3]: 2.48 h
half-life at 1 day [3]: 93 min
AUC(0-t) [3]: 2600 ng·h/mL
Tmax at 1 day (Sprague-Dawley (SD), rat, plasma, po, 10 mg/kg, repeat 10 mg/kg PO QD, Day 1, Mean of 3 animals, read-out: Tmax): 1.33 h
Cmax at 1 day [4]: 699 ng/mL
MRT inf at 1 day [4]: 3.23 h
MRT last at 1 day [4]: 2.66 h
half-life at 1 day [4]: 123 min
Tmax at 1 day (Sprague-Dawley, rat, plasma, po, 10 mg/kg, repeat 10 mg/kg PO QD, Day 1, individual animal, read-out: Tmax): 1 h
Cmax at 5 day [5]: 5.96 ng/mL
MRT last at 5 day [5]: 4.56 h
Tmax at 5 day [5]: 20 min
AUC(0-t) [5]: 11.4 ng·h/mL
Tmax at 5 day (Sprague-Dawley, rat, plasma, po, 10 mg/kg, repeat 10 mg/kg PO QD, Day 5, individual animal): 30 min
behaviour of exposure after 5 days of repeat dosing (in words): increased elimination
AUCinf [6]: 2140 ng·h/mL and 4070 ng·h/mL and 1840 ng·h/mL
AUClast [6]: 1990 ng·h/mL and 4030 ng·h/mL and 1770 ng·h/mL
Cmax [6]: 1090 ng/mL and 587 ng/mL
MRTinf [6]: 2.48 h and 2.66 h
MRTlast [6]: 2.42 h and 2.36 h
T1/2 [6]: 1.04 h and 1.57 h
Tmax [6]: 2 h
AUClast [7]: 11.9 ng·h/mL and 14.9 ng·h/mL and 7.28 ng·h/mL
Cmax [7]: 5.53 ng/mL and 8.36 ng/mL and 3.98 ng/mL
MRTlast [7]: 3.29 h and 8.95 h and 1.44 h
Tmax [7]: 0.25 h

CC(C)(N)c1csc(C(=O)c2c[nH]c3cc(F)ccc23)n1 [ARI-226, (4-(2-aminopropan-2-yl)thiazol-2-yl)(6-fluoro-1H-indol-3-yl)methanone]
AUC(0-inf) [8]: 832 ng·h/mL
Cmax at 1 day [8]: 112 ng/mL
MRT inf at 1 day [8]: 5.81 h
half-life at 1 day [8]: 137 min
AUC(0-t) [8]: 831 ng·h/mL
Tmax at 1 day (SD, rat, plasma, po, 10 mg/kg, PO 10 mg/kg repeat dose, Day 1, Mean of 3 animals, read-out: Tmax): 4 h
Tmax at 5 days (SD, rat, plasma, po, 10 mg/kg, PO 10 mg/kg repeat dose, Day 5, individual animals (ID 4, 5, 6)): 1 h
MRT inf [9]: 5.23 h
half-life [9]: 153 min
Tmax (Sprague-Dawley (SD), rat, plasma, po, 10 mg/kg, PO 10 mg/kg repeat dose, Day 1, individual animals (ID 4, 5, 6), read-out: Tmax): 4 h
AUC(0-inf) [10]: 38.7 ng·h/mL
MRT inf [10]: 3.01 h
half-life [10]: 98.4 min
AUC(0-t) [10]: 35.7 ng·h/mL
Cmax (Sprague-Dawley (SD), rat, plasma, po, 10 mg/kg, PO 10 mg/kg repeat dose, Day 5, Mean of 3 animals, read-out: Cmax): 9.78 ng/mL
Tmax (Sprague-Dawley (SD), rat, plasma, po, 10 mg/kg, PO 10 mg/kg repeat dose, Day 5, Mean of 3 animals, read-out: Tmax): 1.67 h
half-life (Sprague-Dawley (SD), rat, plasma, po, 10 mg/kg, PO 10 mg/kg repeat dose, Day 5, individual animals (ID 4, 5, 6)): 63 min
behaviour of exposure after 5 days of repeat dosing (in words): increased elimination
MRTIast (PO 10 mg/kg repeat dose, Day 1, Mean of 3 animals): 5.78 h
AUCinf [11]: 1280 ng·h/mL and 253 ng·h/mL and 963 ng·h/mL
AUClast [11]: 1280 ng·h/mL and 253 ng·h/mL and 963 ng·h/mL
Cmax [11]: 188 ng/mL and 28.4 ng/mL and 119 ng/mL
MRTIast [11]: 5.18 h and 5.96 h and 6.21 h
MRTinf [11]: 5.99 h and 6.22 h
T1/2 [11]: 2.39 h and 1.89 h
MRTIast (PO 10 mg/kg repeat dose, Day 5, Mean of 3 animals): 2.49 h
AUCinf [12]: 14.2 ng·h/mL and 54.7 ng·h/mL and 47.3 ng·h/mL
AUClast [12]: 13.0 ng·h/mL and 50.9 ng·h/mL and 43.2 ng·h/mL
Cmax [12]: 5.33 ng/mL and 13.2 ng/mL and 10.8 ng/mL
MRTIast [12]: 1.56 h and 2.76 h and 3.15 h
MRTinf [12]: 1.89 h and 3.31 h and 3.82 h
T1/2 [12]: 1.87 h and 2.01 h
Tmax [12]: 2 h

Source: patent US11390621B2, “Chiral indole compounds and their use” (ARIAGEN, INC., priority 2019, dated 2022)
